This test relates to NL43 HIV-1 laboratory strain. The test is described as follows: NL43 HIV-1 laboratory strain replication assay with HelaCD4+β-Gal indicator cells (P4 cells), CPRG development, CalcuSyn analysis. Format: cell-based. The protocol:
Synergistic interactions between quinoline compounds (BA011FZ041) and either RT (zidovudine and nevirapine) or other integrase inhibitors (L-731,988) were investigated using a NL43 HIV-1 laboratory strain replication assay. Virus infectivity in the presence of inhibitors was monitored with HelaCD4+β-Gal indicator cells (P4 cells). Inhibition by combination of BA011FZ041 and other inhibitors was evaluated at three fixed molar BA011FZ041/Inhibitor ratios: 1:1, 1:2, and 2:1. Three independent experiments with triplicate data points were performed for each ratio. Interactions were calculated by the multiple drug effect equation of Chou and Talalay (Chou and Talalay, 1983; and Chou and Talalay, 1984) based on the median effect principle, using CalcuSyn® software (Biosoft, UK).
On the day prior to the test, 5,000 HeLaP4 cells per well are seeded in 100 μl of 10% FBS DMEM supplemented with […] penicillin, 100 μg/ml streptomycin and 0.5 mg/ml geniticin (G418). Otherwise, in the morning of the test, 10,000 HeLaP4 cells are seeded per well in 100 μl of 10% FBS DMEM supplemented with […] penicillin, 100 μg/ml streptomycin and 0.5 mg/ml geniticin (G418).
One plate of cells is used for the 2 drugs alone+half a plate per ratio tested is used for development with CPRG and, as necessary, an equivalent number of plates for the MTT toxicity test.
Several drug-drug ratios are tested: 1:1, 1:2, 2:1, 1:4 and 4:1.
Ratios are expressed relative to IC50 values. For the 1:1 ratio, the IC50 concentration for (BA011FZ041+drug X) is the IC50 concentration for BA011FZ041+the IC50 concentration for drug X.
For the 1:2 ratio, the IC50 concentration for (BA011FZ041+drug X) is the IC50 concentration for BA011FZ041+twice the IC50 concentration for drug X.
The form of BA011FZ041 tested is the sodium carbonate salt.
Further dilutions are also performed using PBS and are then distributed at 5 μl per well. • For DMSO: the molecules are resuspended at a concentration 200-fold higher than that finally required in the well so that DMSO be non toxic for the HeLa P4 cells. The quantity of DMSO is constant for each drug concentration tested.
In practice, initial dilutions are performed using DMSO, with these solutions then being rediluted fivefold in PBS or culture medium so as to obtain concentrations 40-fold higher than those finally required in the well. The solutions are then distributed at 5 μl per well.
Prior to infection, the wells are filled up to a final volume of 200 μl with 40 or 45 μl of medium.
NL4.3 viral supernatant has been produced by CaCl2 transfection of 293T cells. The HeLa P4 cells are infected with NL 4.3 HIV virus, with about 1 to 2 ng of P24 per well.
Depending on the P24 content of the virus used, a virus solution+10% FBS DMEM supplemented with […] penicillin, 100 μg/ml streptomycin and 0.5 mg/ml geniticin (G418) is prepared and is then distributed at 50 μl per well.
The plates are incubated at 37° C., 5% CO2, for 60 hours.
The CPRG (chlorophenol red-β-D-galactopyranoside) test is a […] test enabling measurement of the quantity of β-galactosidase produced during viral infection (the β-gal gene is under the control of the TAR element which in turn is controlled by the viral. TAT).
The supernatant is removed from the plates of HelaP4 cells. 100 μl of CPRG lysis buffer is added per well (for 110 wells: Na2HPO4 (0.5M) 1687 μL, NaH2PO4 (1M) 440 μL, KCl (1M) 110 μL, MgSO4 (1M) 220 μL, EDTA (0.5M) 55 μL, β-mercaptoethanol 39 μL, NP40 14 μL, water 8617 μL).
The cells are incubated for 10 minutes at 37° C. in order to obtain full cell lysis. The lysed wells are homogenized and 50 μl of each lysate is transferred into the corresponding well of another plate containing 100 μl reaction buffer (for 110 wells: pH 7.4 phosphate buffer (1M) 880 μL, MgCl2 99 μL, β-mercaptoethanol 77 μL, water 8140 μL, CPRG (250 mg of CPRG dissolved in 9.1 ml of Millipore water+455 μl pH 7.4 sodium phosphate buffer) 1833 μL).

Molecules are shown by their SMILES. Where two headings read alike, the source gives them in different places.

Consider `COc1cc(C=Cc2ccc3ccc(C(=O)O)c(O)c3n2)cc(O)c1O` [BA011FZ041, 8-hydroxy-2-[2-[(3,4-dihydroxy-5-methoxy-phenyl)ethenyl]]7-quinoline carboxylic acid], for which the concentration for half-maximal inhibition (IC50) by setting is: (Table 6, Ratio 1:1 series with Nev, drug alone, Mean, read-out: IC50 FZ41, drug alone) 1600 nM; (Table 6, Ratio 1:2 series with Nev, drug alone, Mean, read-out: IC50 FZ4, drug alone) 1500 nM; (Table 6, Ratio 2:1 series with Nev, drug alone, Mean, read-out: IC50 FZ41, drug alone) 1500 nM; (Table 8, Ratio 1:1 series with ZVD, drug alone, Mean, read-out: IC50 FZ41, drug alone) 1400 nM; (Table 8, Ratio 1:2 series with ZVD, drug alone, Mean, read-out: IC50 FZ41, drug alone) 1700 nM; (Table 8, Ratio 2:1 series with ZVD, drug alone, Mean, read-out: IC50 FZ41, drug alone) 1700 nM. The IC50 is 1300 nM (Table 10, Ratio 1:1 series with L-731,988, drug alone, Mean, read-out: IC50 FZ41, drug alone); 1300 nM (Table 10, Ratio 1:2 series with L-731,988, drug alone, Mean, read-out: IC50 FZ41, drug alone); 1300 nM (Table 10, Ratio 2:1 series with L-731,988, drug alone, Mean, read-out: IC50 FZ41, drug alone); 900 nM (in the mix with L-731,988, Ratio 1:1, Mean, read-out: IC50 FZ41, in the mix); 800 nM (in the mix with L-731,988, Ratio 1:2, Mean, read-out: IC50 FZ41, in the mix); 1100 nM (in the mix with L-731,988, Ratio 2:1, Mean, read-out: IC50 FZ41, in the mix). Besides, the half-maximal inhibitory concentration (IC50) is 1100 nM (in the mix with Nev, Ratio 1:1, Mean, read-out: IC50 FZ41, in the mix); 900 nM (in the mix with Nev, Ratio 1:2, Mean, read-out: IC50 FZ4, in the mix); 1200 nM (in the mix with Nev, Ratio 2:1, Mean, read-out: IC50 FZ41, in the mix); 800 nM (in the mix with ZVD, Ratio 1:1, Mean, read-out: IC50 FZ41, in the mix); 700 nM (in the mix with ZVD, Ratio 1:2, Mean, read-out: IC50 FZ41, in the mix); 1100 nM (in the mix with ZVD, Ratio 2:1, Mean, read-out: IC50 FZ41, in the mix).

Consider `O=C(O)C(=O)CC(=O)c1cccn1Cc1ccc(F)cc1` [L-731,988, 4-[1-(4-fluorobenzyl)pyrrole-2-yl]-2,4-diketobutanoic acid], for which the half-inhibitory concentration (IC50) was 1500 nM (Human immunodeficiency virus 1, NL43, Table 10, Ratio 1:1 series, drug alone, Mean, read-out: IC50 L-731,988, drug alone); 1500 nM (Human immunodeficiency virus 1, NL43, Table 10, Ratio 1:2 series, drug alone, Mean, read-out: IC50 L-731,988, drug alone); 1500 nM (Human immunodeficiency virus 1, NL43, Table 10, Ratio 2:1 series, drug alone, Mean, read-out: IC50 L-731,988, drug alone); 300 nM (Human immunodeficiency virus 1, NL43, in the mix with FZ41, Ratio 1:1, Mean, read-out: IC50 L-731,988, in the mix); 500 nM (Human immunodeficiency virus 1, NL43, in the mix with FZ41, Ratio 1:2, Mean, read-out: IC50 L-731,988, in the mix); 200 nM (Human immunodeficiency virus 1, NL43, in the mix with FZ41, Ratio 2:1, Mean, read-out: IC50 L-731,988, in the mix).

Consider `Cc1ccnc2c1NC(=O)c1cccnc1N2C1CC1` [Nev], for which the IC50 (Human immunodeficiency virus 1, NL43, Table 6, Ratio 1:1 series, drug alone, Mean, read-out: IC50 Nev, drug alone) was 39 nM; the IC50 (Human immunodeficiency virus 1, NL43, Table 6, Ratio 1:2 series, drug alone, Mean, read-out: IC50 Nev, drug alone) is 41 nM; the IC50 (Human immunodeficiency virus 1, NL43, Table 6, Ratio 2:1 series, drug alone, Mean, read-out: IC50 Nev, drug alone) is 39 nM; the 50% inhibitory concentration (IC50) (Human immunodeficiency virus 1, NL43, in the mix with FZ41, Ratio 1:1, Mean, read-out: IC50 Nev, in the mix) was 11 nM; the half-inhibitory concentration (IC50) (Human immunodeficiency virus 1, NL43, in the mix with FZ41, Ratio 1:2, Mean, read-out: IC50 Nev, in the mix) is 18 nM; the IC50 (Human immunodeficiency virus 1, NL43, in the mix with FZ41, Ratio 2:1, Mean, read-out: IC50 Nev, in the mix) was 6.3 nM.

Regarding `Cc1cn([C@H]2C[C@H](N=[N+]=[N-])[C@@H](CO)O2)c(=O)[nH]c1=O` [ZVD, 3′-azido-3′-deoxythymidine], the IC50 was 29 nM (Human immunodeficiency virus 1, NL43, Table 8, Ratio 1:1 series, drug alone, Mean, read-out: IC50 ZVD, drug alone); 46 nM (Human immunodeficiency virus 1, NL43, Table 8, Ratio 1:2 series, drug alone, Mean, read-out: IC50 ZVD, drug alone); 44 nM (Human immunodeficiency virus 1, NL43, Table 8, Ratio 2:1 series, drug alone, Mean, read-out: IC50 ZVD, drug alone); 16 nM (Human immunodeficiency virus 1, NL43, in the mix with FZ41, Ratio 1:1, Mean, read-out: IC50 ZVD, in the mix); 28 nM (Human immunodeficiency virus 1, NL43, in the mix with FZ41, Ratio 1:2, Mean, read-out: IC50 ZVD, in the mix); 11 nM (Human immunodeficiency virus 1, NL43, in the mix with FZ41, Ratio 2:1, Mean, read-out: IC50 ZVD, in the mix).

The values are drawn from patent US20080280849A1, “Synergic Combinations Comprising a Quinoline Compound and Other Hiv Infection Therapeutic Agents” (priority 2005, published 2008).
